# Source: publication PMC9143880, “Improving Antimicrobial Activity and Physico-Chemical Properties by Isosteric Replacement of 2-Aminothiazole with 2-Aminooxazole” (Pharmaceuticals, 2022)
# Where two headings read alike, the source gives them in different places.
# Experiments:
# [1] = system: Pseudomonas aeruginosa CCM 3955 (ATCC 27853); test: Antibacterial microdilution broth (EUCAST); assay type: cell-based; settings: Pseudomonas aeruginosa; 72h incubation; read-out: MIC PA
# [2] = system: HepG2 cells; test: HepG2 cytotoxicity screening (CellTiter 96); assay type: cell-based, human; settings: Homo sapiens, HepG2, 24 h, 24 h incubation, CellTiter 96; * above highest tested concentration; ** limited by insolubility in medium
# [3] = system: Staphylococcus epidermidis CCM 4418 (ATCC 12228); test: Antibacterial microdilution broth (EUCAST); assay type: cell-based; settings: Staphylococcus epidermidis; 24h incubation; read-out: MIC SE
# [4] = system: Mycobacterium tuberculosis H37Ra ITM-M006710 (ATCC 9431); test: Antimycobacterial MIC, microdilution broth / Alamar Blue (resazurin); assay type: cell-based; settings: Mycobacterium tuberculosis, 120 h, Middlebrook 7H9, resazurin after 120 h; read-out: Mtb H37Ra MIC
# [5] = system: Candida krusei CCM 8271 (ATCC 6258); test: Antifungal microdilution broth (EUCAST); settings: Pichia kudriavzevii, 24 h, read-out: MIC CK
# [6] = system: Trichophyton interdigitale CCM 8377 (ATCC 9533); test: Antifungal microdilution broth (EUCAST); settings: Trichophyton interdigitale, 72 h, read-out: MIC TI
# [7] = system: Escherichia coli CCM 3954 (ATCC 25922); test: Antibacterial microdilution broth (EUCAST); assay type: cell-based; settings: Escherichia coli; 24h incubation; read-out: MIC EC
# [8] = system: M. aurum DSM 43999 (ATCC 23366); test: Antimycobacterial MIC, microdilution broth / resazurin; assay type: cell-based; settings: Mycolicibacterium aurum; resazurin after 72 h; read-out: MIC M. aurum
# [9] = system: Aspergillus fumigatus ATCC 204305; test: Antifungal microdilution broth (EUCAST); settings: Aspergillus fumigatus, ATCC204305, 24 h, read-out: MIC AF
# [10] = system: Candida tropicalis CCM 8264 (ATCC 750); test: Antifungal microdilution broth (EUCAST); settings: Candida tropicalis, 24 h, read-out: MIC CT
# [11] = system: Aspergillus flavus CCM 8363; test: Antifungal microdilution broth (EUCAST); settings: Aspergillus flavus, CCM8363, 24 h, read-out: MIC AFla
# [12] = system: Candida albicans CCM 8320 (ATCC 24433); test: Antifungal microdilution broth (EUCAST); settings: Candida albicans, 24 h, read-out: MIC CA
# [13] = system: Candida parapsilosis CCM 8260 (ATCC 22019); test: Antifungal microdilution broth (EUCAST); settings: Lodderomyces parapsilosis, 24 h, read-out: MIC CP
# [14] = system: Staphylococcus aureus subsp. aureus (MRSA) CCM 4750 (ATCC 43300); test: Antibacterial microdilution broth (EUCAST); assay type: cell-based; settings: Staphylococcus aureus; 24h incubation; read-out: MIC MRSA
# [15] = system: Enterococcus faecalis CCM 4224 (ATCC 29212); test: Antibacterial microdilution broth (EUCAST); assay type: cell-based; settings: Enterococcus faecalis; 24h incubation; read-out: MIC EF
# [16] = system: M. smegmatis DSM 43465 (ATCC 607); test: Antimycobacterial MIC, microdilution broth / resazurin; assay type: cell-based; settings: Mycolicibacterium smegmatis; resazurin after 48 h; read-out: MIC M. smegmatis
# [17] = system: Lichtheimia corymbifera CCM 8077; test: Antifungal microdilution broth (EUCAST); settings: Lichtheimia corymbifera, CCM8077, 24 h, read-out: MIC LC
# [18] = system: Acinetobacter baumannii DSM 30007 (ATCC 19606); test: Antibacterial microdilution broth (EUCAST); assay type: cell-based; settings: Acinetobacter baumannii; 24h incubation; read-out: MIC AB
# [19] = Kinetic water solubility (water-induced precipitation of DMSO stock, UHPLC); assay type: physicochemical; settings: for solubility: water (DMSO stock diluted with water), 18 °C, kinetic from dmso stock
# Description: A low value of log P is often presumed to be related to increased water solubility, although this might not always be the case since log P is a measure of relative solubility of the compound in the lipophilic and hydrophilic solvents (at equilibrium). Therefore, to be sure, we tested whether the lowered log k’w (related to log P) of the oxazole derivatives would also translate to increased solubility in water in a few representative derivatives. The water solubility of selected compounds was assessed by the kinetic method based on water-induced precipitation of DMSO stock solutions of tested compounds due to reasons described by Azzali and colleagues.
# Water solubility was investigated using the kinetic solubility method. The sample (1 mg) was dissolved in the smallest amount of DMSO needed, 25 or 50 μL for subtype I and subtype II compounds, respectively. The samples were mixed at 18 °C in a thermomixer (Thermomixer comfort, Eppendorf, Hamburg, Germany) for 1 h. After mixing, the samples were diluted with water to a concentration of 500 μM, and the precipitate was observed. The sample was filtered through a 0.22 μm filter and diluted to be evaluated by UHPLC. The log S parameter was calculated from the experimental solubility in molar concentration. The samples were measured using the same instrument, software, and column as used in the purity evaluation.
# [20] = system: Staphylococcus aureus subsp. aureus CCM 4223 (ATCC 29213); test: Antibacterial microdilution broth (EUCAST); assay type: cell-based; settings: Staphylococcus aureus; 24h incubation; read-out: MIC SA
# [21] = RP-UHPLC lipophilicity parameter log k’w; assay type: physicochemical; settings: for log k’w: RP-UHPLC, acetonitrile/water, log k extrapolated to 0% acetonitrile; for logkw: experimental lipophilicity parameter
# Procedure, shortened: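 log k’w from isocratic RP-UHPLC with an acetonitrile/water mobile phase, using 40, 45 and 50% acetonitrile for subtype I and 20, 30 and 40% for subtype II. A single run was made at each mobile-phase composition.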
# [22] = system: M. avium DSM 44156 (ATCC 25291); test: Antimycobacterial MIC, microdilution broth / resazurin; assay type: cell-based, Mycobacterium avium; settings: Mycobacterium avium; resazurin after 96 h; read-out: MIC M. avium
# [23] = system: M. kansasii DSM 44162 (ATCC 12478); test: as above; assay type: cell-based; settings: Mycobacterium kansasii; resazurin after 96 h; read-out: MIC M. kansasii
# [24] = calculated from experimentally measured water solubility in molar concentration, read-out: Exp. log S (converted)
# [25] = water, kinetic method, DMSO stock diluted to 500 μM, read-out: Solubility
compound,measurement,setting,value
O=C(Nc1nccs1)c1cccnc1 [Compound 2a],MIC,[1],> 500 µM
same,IC50,[2],> 1000 µM
same,MIC,[3],> 500 µM
same,MIC,[4],250 µg/mL
same,MIC,[5],> 500 µM
same,MIC,[6],> 500 µM
same,MIC,[7],> 500 µM
same,MIC,[8],250 µg/mL
same,MIC,[9],> 500 µM
same,MIC,[10],> 500 µM
same,MIC,[11],> 500 µM
same,MIC,[12],> 500 µM
same,MIC,[13],> 500 µM
same,MIC,[14],> 500 µM
same,MIC,[15],> 500 µM
same,MIC,[16],≥ 500 µg/mL
same,MIC,[17],> 500 µM
same,MIC,[18],> 500 µM
same,logS_exp,[19],-1.202
same,MIC,[20],> 500 µM
O=C(Nc1ncco1)c1cccnc1 [Compound 2b],MIC,[1],> 500 µM
same,IC50,[2],> 1000 µM
same,MIC,[3],500 µM
same,MIC,[4],31.2 µg/mL
same,MIC,[5],500 µM
same,melting point,,155 to 160 °C
same,MIC,[6],125 µM
same,MIC,[7],> 500 µM
same,MIC,[8],15.6 µg/mL
same,MIC,[9],> 500 µM
same,MIC,[10],> 500 µM
same,MIC,[11],> 500 µM
same,MIC,[12],500 µM
same,MIC,[13],250 µM
same,MIC,[14],500 µM
same,MIC,[15],> 500 µM
same,MIC,[16],62.5 µg/mL
same,log k’w,[21],0.436
same,logkw,[21],0.4358
same,MIC,[17],> 500 µM
same,MIC,[18],> 500 µM
same,logS_exp,[19]; experimental log S,-0.9171
same,MIC,[20],250 µM
O=C(Nc1nccs1)c1ccnc(Cl)c1 [Compound 6a],MIC,[1],> 500 µM
same,IC50,[2],> 250 µM
same,MIC,[22],≥ 500 µg/mL
same,MIC,[3],> 500 µM
same,MIC,[4],≥ 500 µg/mL
same,MIC,[5],> 500 µM
same,melting point,,152 to 154 °C
same,MIC,[6],> 500 µM
same,MIC,[7],> 500 µM
same,MIC,[8],≥ 500 µg/mL
same,MIC,[9],> 500 µM
same,MIC,[10],> 500 µM
same,MIC,[11],> 500 µM
same,MIC,[12],> 500 µM
same,MIC,[13],> 500 µM
same,MIC,[14],> 500 µM
same,MIC,[15],> 500 µM
same,MIC,[16],≥ 500 µg/mL
same,log k’w,[21],2.013
same,logkw,[21],2.013
same,MIC,[17],> 500 µM
same,MIC,[18],> 500 µM
same,MIC,[23],≥ 500 µg/mL
same,solubility,[19]; [24],126 µM
same,solubility,[19]; [25],29.9 µg/mL
same,MIC,[20],> 500 µM
O=C(Nc1nc(-c2ccccc2)cs1)c1cccnc1 [Compound 12a],MIC,[1],> 125 µM
same,IC50,[2],> 25 µM
same,MIC,[22],≥ 500 µg/mL
same,MIC,[3],> 125 µM
same,MIC,[4],≥ 500 µg/mL
same,MIC,[5],> 125 µM
same,MIC,[6],> 125 µM
same,MIC,[7],> 125 µM
same,MIC,[8],≥ 500 µg/mL
same,MIC,[9],> 125 µM
same,MIC,[10],> 125 µM
same,MIC,[11],> 125 µM
same,MIC,[12],> 125 µM
same,MIC,[13],> 125 µM
same,MIC,[14],> 125 µM
same,MIC,[15],> 125 µM
same,MIC,[16],≥ 500 µg/mL
same,log k’w,[21],2.131
same,logkw,[21],2.131
same,MIC,[17],> 125 µM
same,MIC,[18],> 125 µM
same,MIC,[23],≥ 500 µg/mL
same,logS_exp,[19]; experimental log S,-3.188
same,solubility,[19]; [24],1 µM
same,solubility,[19]; [25],0.28 µg/mL
same,MIC,[20],> 125 µM
